How the values were obtained:
[1] = test system: BG02 hESCs; assay: Proliferation of hESCs growing in conditioned medium with AG825; assay type: cell-based, human; conditions: 50 μM (FIG. 6A)
From the text: (§1) Colony and cell-counting assays confirmed that LongR3-IGF1 and HRG played the major roles in self-renewal and proliferation in the context of one of the embodiments of the present invention (FIGS. 6D, 6E). Phosphorylation of IGF1R, IR, FGF2a, ErbB2, and ErbB3 was also observed in both steady-state DC-HAIF cultures, and in starved cultures that were pulsed with DC-HAIF (FIG. 6F).

[2] = molecular target: T1, ErbB2 (Homo sapiens, UniProt P04626); assay: Western blotting of ErbB2 autophosphorylation in starved/heregulin pulsed hESCs; assay type: cell-based; conditions: starved/heregulin pulsed hESCs growing in DC-HAIF
T1 construct: endogenous in cells; host or cells: human embryonic stem cells (hESCs) grown in DC-HAIF
T1 sequence (P04626 23-1255): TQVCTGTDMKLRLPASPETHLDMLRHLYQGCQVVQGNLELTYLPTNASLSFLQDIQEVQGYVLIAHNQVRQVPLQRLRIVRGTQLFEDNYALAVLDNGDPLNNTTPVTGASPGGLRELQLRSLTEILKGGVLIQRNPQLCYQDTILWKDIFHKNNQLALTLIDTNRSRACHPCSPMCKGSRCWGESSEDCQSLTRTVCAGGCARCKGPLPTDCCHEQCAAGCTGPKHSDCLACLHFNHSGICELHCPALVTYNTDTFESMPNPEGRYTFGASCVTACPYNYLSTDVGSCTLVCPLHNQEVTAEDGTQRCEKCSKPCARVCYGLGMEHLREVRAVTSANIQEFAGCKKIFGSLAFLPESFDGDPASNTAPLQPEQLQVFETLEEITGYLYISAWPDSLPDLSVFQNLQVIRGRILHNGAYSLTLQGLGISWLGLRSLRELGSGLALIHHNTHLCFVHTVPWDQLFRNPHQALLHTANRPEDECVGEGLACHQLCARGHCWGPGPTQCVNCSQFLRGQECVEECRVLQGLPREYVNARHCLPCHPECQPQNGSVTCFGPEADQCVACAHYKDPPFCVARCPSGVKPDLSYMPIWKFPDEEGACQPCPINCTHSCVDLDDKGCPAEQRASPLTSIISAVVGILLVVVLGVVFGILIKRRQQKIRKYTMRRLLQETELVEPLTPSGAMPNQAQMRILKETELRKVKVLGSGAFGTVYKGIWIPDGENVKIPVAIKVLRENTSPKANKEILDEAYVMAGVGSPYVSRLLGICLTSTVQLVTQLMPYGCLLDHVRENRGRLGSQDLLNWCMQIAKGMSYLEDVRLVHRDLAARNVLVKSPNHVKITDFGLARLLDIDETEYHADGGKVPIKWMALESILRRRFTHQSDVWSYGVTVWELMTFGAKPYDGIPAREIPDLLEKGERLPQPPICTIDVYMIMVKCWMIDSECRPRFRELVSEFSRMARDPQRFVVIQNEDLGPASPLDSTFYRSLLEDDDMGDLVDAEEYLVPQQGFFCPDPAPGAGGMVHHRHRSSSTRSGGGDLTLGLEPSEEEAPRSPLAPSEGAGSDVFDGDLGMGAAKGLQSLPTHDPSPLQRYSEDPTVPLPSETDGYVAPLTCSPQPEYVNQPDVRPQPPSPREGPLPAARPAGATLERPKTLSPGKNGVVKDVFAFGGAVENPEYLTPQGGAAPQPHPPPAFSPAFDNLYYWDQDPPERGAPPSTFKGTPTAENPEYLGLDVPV
From the text: as §1

[3] = test system: BG01v cells; assay: Proliferation of BG01v cells with ErbB tyrosine kinase inhibitors, alkaline phosphatase staining; assay type: cell-based; conditions: 5 days
Protocol: To examine the effect of known inhibitors of ErbB tyrosine kinases in hESCs, BG01 v cells were plated in 6 well trays on […]™ diluted at 1:1000, in defined culture medium (DC) containing 100 ng/ml LongR3-IGF1, 8 ng/ml FGF2 and 1 ng/ml Activin A. On the next day, DMSO (carrier control), 50 nM-20 μM AG1478 (an ErbB1 inhibitor), or 100 nM-20 μM AG879 (an ErbB2 inhibitor) was added with fresh medium. The cells were cultured for an additional 5 days, with daily media changes. The cultures were then fixed and stained for alkaline phosphatase activity.

[4] = test system: R1 mouse ES cells; assay: Proliferation of R1 mouse ES cells with ErbB tyrosine kinase inhibitors, alkaline phosphatase staining; assay type: cell-based
Protocol: AG1478 and AG879 were used to examine the role of HRG/ErbB signaling in mouse ES cells. R1 mouse ES cells were maintained in standard conditions in DMEM, 10% FBS, 10% KSR, 0.5 U/ml penicillin, 0.5 U/ml streptomycin, 1×NEAA, 1 mM sodium pyruvate, 1000 U/ml LIF (ESGRO), 0.1 mM 13-ME, and were passaged with 0.5% trypsin/EDTA. 2×10^5 cells/well were plated in 6 well trays on […]™ diluted at 1:1000. The day after plating, DMSO (carrier control), 1-50 μM AG1478, or 1-50 μM AG879 was added with fresh medium. The cells were cultured an additional 8 days, with daily media changes. The cultures were then fixed and stained for alkaline phosphatase activity.

[5] = test system: ES cells; assay: Suspension cultures in various media, cell counting; assay type: cell-based; conditions: added to HAIF, HAI and HI conditions
Protocol: To determine if suspensions of ES cells could be cultured in the absence of FGF2 and/or Activin A, ES cells were cultured in a variety of media, with and without these factors. […] In addition, the cells in each media were successfully passaged with no morphological signs of differentiation.

[6] = test system: BG02 cells; assay: Suspension culture of BG02 cells with and without apoptosis inhibitor, cell counting; assay type: cell-based, human
Protocol: Starting cultures of BG02 cells were maintained in DC-HAIF medium on dishes coated with 1:200 matrigel, as described herein and were split by passaging with ACCUTASE™. To initiate suspension culture, BG02 cells were disaggregated with ACCUTASE™ and placed in low attachment 6-well trays at a density of 1.6, 3, or 6×10^5 cells/ml (0.5, 1, or 2×10^6 cells in 3 ml volumes) in DC-HAIF medium. The trays were placed on a rotating platform at 80-100 rpm in a humidified incubator with 5% CO2. Under these conditions hESCs coalesced into small spheres of morphologically viable cells within 24 hours.
To attenuate the loss of cells after initial passaging in suspension, an inhibitor of apoptosis was added to the medium. Cells were passaged as in Example 12, except that Y-27632, an inhibitor of p160-Rho-associated coiled-coil kinase (ROCK), was added to the medium.
Suspension aggregates of BG02 cells were formed by seeding 2×10^6 single cells in 6-well dishes in 3 ml DC-HAIF medium, at 100 rpm on a rotating platform in an incubator (Table 2, Experiment A). 10 μM Y27632 ROCK inhibitor was added to test wells for the course of the experiment and the cultures observed daily and counted after 24 hours (day 1) and after 4 or 5 days. […] Cell counting confirmed that more viable cells were present in the presence of inhibitor (Table 2, Experiment A). This difference in cell number persisted throughout the course of the culture period, with more cells also observed on day 4, compared to cultures without inhibitor. As with previous suspension culture experiments, cells exposed to Y27632 could also be serially passaged, and maintained in an undifferentiated state (not shown).
As previous experiments had shown that growth rates of cells in suspension and adherent culture were similar after the initial 24 hours, an experiment was performed where Y27632 was removed after this initial period (Table 2, Experiment B). […] 1.4×10^7 (+Y27632) and 1.8×10^7 (+/−Y27632) viable cells were generated when inhibitor was present compared to 3.9×10^6 cells in untreated cultures. This analysis confirmed that Y27632 had the largest impact during the first 24 hours of suspension hESC culture.
Because of the enhanced survival and aggregation observed in the presence of Y27632, an experiment was performed to examine if it was possible to reduce the number of cells used to seed suspension cultures (Table 2, Experiment C). […] To determine if addition of a ROCK inhibitor would allow cell seeding at lower densities, a range of cell concentrations (from about 2×10^6 total cells down to about 1×10^5 total cells was used to seed suspension cultures in 6-well trays cells in 3 ml DC-HAIF. 10 μM Y27632 was added to all conditions, and the cell number and viability assessed on day 5. Successful aggregation and expansion was observed even at low seeding densities. An approxiate 13 fold expansion of viable cells was observed even cultures that were only seeded with 1×10^5 cells. Inhibition of ROCK with Y27632 therefore facilitated initial survival of hESCs at much lower densities in this suspension system.

[7] = test system: hESCs; assay: Titration of insulin and IGF1 at physiological levels, hESC proliferation; assay type: cell-based, human; conditions: titrated from about 0.2 to about 200 ng/ml, cells counted after 5 days
Protocol: Essentially all of the reported culture conditions for hESCs to date include supraphysiological levels of insulin, which can stimulate both IR and IGF1R. To distinguish the activities that insulin and insulin-substitutes exert, compared to IGF1, hESCs are cultured in defined media conditions in physiological levels of these growth factors. The concentrations of insulin and IGF1 are titrated from about 0.2 to about 200 ng/ml and cell proliferation is monitored by counting cells after 5 days. Cultures that expand successfully are serially passaged 5 times.

[8] = Expt. A, seeding 2 × 10^6, p0, day 1
[9] = Expt. A, seeding 2 × 10^6, p0, day 4
[10] = Expt. B, seeding 2 × 10^6, p0, day 1
[11] = Expt. B, seeding 2 × 10^6, p0, day 5
[12] = Expt. B, seeding 2 × 10^6, p0, day 5, Y27632 removed after 24 hours
[13] = Expt. C, seeding 1 × 10^6, p0, day 1
[14] = Expt. C, seeding 1 × 10^6, p0, day 5
[15] = Expt. C, seeding 2 × 10^6, p0, day 1
[16] = Expt. C, seeding 2 × 10^6, p0, day 5
[17] = Expt. C, seeding 2.5 × 10^5, p0, day 1
[18] = Expt. C, seeding 2.5 × 10^5, p0, day 5
[19] = Expt. C, seeding 5 × 10^5, p0, day 1
[20] = Expt. C, seeding 5 × 10^5, p0, day 5
[21] = Expt. C, seeding 10^5, p0, day 1
[22] = Expt. C, seeding 10^5, p0, day 5

COc1cc(/C=C(\C#N)C(N)=O)cc(CSc2nc3ccccc3s2)c1O [AG825]
effect on proliferation of hESCs growing in conditioned medium (CM) [1]: significantly inhibited proliferation
autophosphorylation of ErbB2 at tyrosine-1248 [2]: inhibited autophosphorylation

CC(C)(C)c1cc(/C=C(\C#N)C(N)=S)cc(C(C)(C)C)c1O [AG879]
effect on cell growth ([3]; 5 μM): substantially inhibited cell growth
cell death ([3]; 20 μM): caused cell death
effect on proliferation ([4]; 20 μM, 8 days): may have slowed proliferation
effect on cell growth ([4]; 50 μM, 8 days): substantially inhibited cell growth
concentration required to inhibit proliferation, mESCs relative to BG01v cells ([4]; higher for mESCs than for BG01v cells in defined conditions): ~10 ×

COc1cc2ncnc(Nc3cccc(Cl)c3)c2cc1OC [AG1478]
effect on cell proliferation ([3]; 50 nM-20 μM, DC medium with LongR3-IGF1, FGF2, Activin A): neither DMSO nor AG1478 (50 nM-20 μM) had an apparent affect on cell proliferation
effect on cell proliferation ([4]; 1-50 μM, 8 days, 10% FBS, 10% KSR, LIF): no apparent affect on cell proliferation

C[C@@H](N)[C@H]1CC[C@H](C(=O)Nc2ccncc2)CC1 [Y27632]
yield of cells generated by day 5 [5]: increased the yield of cells
size of aggregates in initial aggregation phase of suspension culture ([6]; 10 μM, compared to medium without inhibitor): much larger aggregates were formed
initial survival and aggregation of hESCs after initial passage ([6]; 10 μM, first 24 hours): enhanced initial survival and aggregation of hESCs
cells observed when the aggregates were split again ([6]; Expt. A, 10 μM, versus without inhibitor): almost twice as many cells
Cell counts: total ([6]; Expt. A, p1, day 4): 4.6 × 10^6 cells
Cell counts: viable ([6]; Expt. A, p1, day 4): 4.2 × 10^6 cells
viable cells, % ([6]; Expt. A, p1, day 4): 91%
Cell counts: total [6, 8]: 1.6 × 10^6 cells
Cell counts: viable [6, 8]: 1.2 × 10^6 cells
viable cells, % [6, 8]: 74%
Cell counts: total [6, 9]: 7.8 × 10^6 cells
Cell counts: viable [6, 9]: 7.1 × 10^6 cells
viable cells, % [6, 9]: 91%
Cell counts: total [6, 10]: 1.9 × 10^6 cells
Cell counts: viable [6, 10]: 1.4 × 10^6 cells
viable cells, % [6, 10]: 73%
Cell counts: total [6, 11]: 1.5 × 10^7 cells
Cell counts: viable [6, 11]: 1.4×10^7 cells
viable cells, % [6, 11]: 92%
Cell counts: total [6, 12]: 1.9 × 10^7 cells
Cell counts: viable [6, 12]: 1.8×10^7 cells
viable cells, % [6, 12]: 96%
Cell counts: total [6, 13]: 8.7 × 10^5 cells
Cell counts: viable [6, 13]: 6.6 × 10^5 cells
viable cells, % [6, 13]: 76%
Cell counts: total [6, 14]: 8.6 × 10^6 cells
Cell counts: viable [6, 14]: 7.8 × 10^6 cells
viable cells, % [6, 14]: 91%
Cell counts: total [6, 15]: 1.9 × 10^6 cells
Cell counts: viable [6, 15]: 1.6 × 10^6 cells
viable cells, % [6, 15]: 84%
Cell counts: total [6, 16]: 1.4 × 10^7 cells
Cell counts: viable [6, 16]: 1.2 × 10^7 cells
viable cells, % [6, 16]: 90%
Cell counts: total [6, 17]: 2.6 × 10^5 cells
Cell counts: viable [6, 17]: 2.3 × 10^5 cells
viable cells, % [6, 17]: 91%
Cell counts: total [6, 18]: 2.7 × 10^6 cells
Cell counts: viable [6, 18]: 2.5 × 10^6 cells
viable cells, % [6, 18]: 91%
Cell counts: total [6, 19]: 4.6 × 10^5 cells
Cell counts: viable [6, 19]: 3.5 × 10^5 cells
viable cells, % [6, 19]: 75%
Cell counts: total [6, 20]: 5.7 × 10^6 cells
Cell counts: viable [6, 20]: 5.3 × 10^6 cells
viable cells, % [6, 20]: 93%
Cell counts: total [6, 21]: 6.8 × 10^4 cells
Cell counts: viable [6, 21]: 5.4 × 10^4 cells
viable cells, % [6, 21]: 79%
Cell counts: total [6, 22]: 1.4 × 10^6 cells
Cell counts: viable [6, 22]: 1.3 × 10^6 cells
viable cells, % [6, 22]: 92%
expansion of viable cells ([6]; seeded with 1×10^5 cells, 10 μM Y27632, day 5): ~13 fold

IGF1: insulin-like growth factor
expansion of hESC cultures at physiological levels [7]: support the expansion of hESC cultures

insulin: protein that binds to the insulin receptor
expansion of hESC cultures at physiological levels [7]: do not

Reference: patent US8415158B2, “Compositions and methods useful for culturing differentiable cells” (ViaCyte, Inc., priority 2006, dated 2013)
